Reference: PubChem BioAssay (NCI)
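How tested: cells in 96-well plates exposed to compound for 48 hours at five concentrations. TGI: total growth inhibition.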

Tests used:
Test in all cases: inhibition of tumour cell growth, NCI panel, 48 h
[1] = system: CAKI-1 renal
[2] = system: CCRF-CEM leukemia
[3] = system: EKVX NSCLC
[4] = system: NCI-H522 lung
[5] = system: PC-3 prostate
[6] = system: SN12C renal
[7] = system: SNB-19 CNS
[8] = system: SR leukemia
[9] = system: OVCAR-5 ovarian
[10] = system: SNB-75 CNS

Structure (SMILES)	TGI [1] [µM]	TGI [2] [µM]	TGI [3] [µM]	TGI [4] [µM]	TGI [5] [µM]	TGI [6] [µM]	TGI [7] [µM]	TGI [8] [µM]	TGI [9] [µM]	TGI [10] [µM]
O=C(C(Cl)=C(N1CCOCC1)N1CCOCC1)C(Cl)Cl	> 100	> 100	> 100	> 100	> 100	> 100	> 100	> 100		
O=c1[nH]nc(Cc2ccccc2)n1/N=C/c1ccncc1	> 100	> 100	> 100	> 100	> 100	> 100	> 100	> 100	> 100	> 100
CCOC(=O)C1CCC(=O)N1C(=O)c1ccccc1 (stereo unspecified)	> 100	> 100	> 100	> 100	> 100	> 100	> 100	> 100	> 100	
c1c2c(cc(-n3nnc4c3CCCCCC4)c1-n1nnc3c1CCCCCC3)CCCCCC2	7.17	27.3	23.6	1.85		24.4	28.4		30	32.1
CN(C)CCNC(=O)c1cccc2nc(-c3ccccc3)oc12		> 100	> 55.8			> 100	> 79.8		> 100	> 100
Cc1ccc(/C=C2\Cc3c(C)cc(C)cc3C2=O)c(C(=O)O)c1	> 100	> 100	> 100	> 100	> 100	> 100	> 100	68.7	> 100	> 100
O=C1CSC2=NC3=C(COC/C3=C\c3ccc(Br)cc3)C(c3ccc(Br)cc3)N12 (stereo unspecified)	> 100	61.9	> 100	> 100	> 100	> 100	> 100	60.9	> 100	> 100
Nc1nn2c(=O)c3ccccc3nc2s1	> 100	46.9	> 100	50.3	> 100	> 100	> 100	44.7	> 100	> 100
CCOC(=O)c1nnsc1NN	> 100	> 100	> 100	> 100	> 100	> 100	> 100		> 100	> 100
CC(=O)OCc1c(O)c2c(c(O)c1COC(C)=O)C(=O)C=CC2=O	21.8	13.7	32			24.2		> 100	30.9	33.2
COc1ccc(N(C(=O)Nc2ccc(Cl)c(Cl)c2)C2c3cccn3C(=O)N2c2ccc(Cl)c(Cl)c2)cc1 (stereo unspecified)	> 100	> 100	> 100		> 100	> 100	> 100	> 100	> 100	
CO[C@]12C[C@H](CNC(=O)c3ccc[nH]3)O[C@H]1NC(=O)N2	> 100	> 100	> 100	> 100	> 100	> 100	> 100	> 100	> 100	
CCCCCCCCCc1nn2c(Cc3ccccc3)nnc2s1	> 100		29.6	27	51	32.8	36.1		29.6	65.4
O=c1cc(-c2ccccc2)oc2c(-c3cc(Cl)cc4c(=O)cc(-c5ccccc5)oc34)cc(Cl)cc12		54.6	> 100	55.3	> 100	> 100	> 100	> 100	> 100	94
COc1ccc(NC(=S)NC(=O)c2ccc3c(c2)Sc2ccccc2O3)c([N+](=O)[O-])c1	> 100	> 100		35.3	> 100	> 100	83.6	> 100	> 100	23.7
Cn1c2ccccc2c(=O)c2c(O)cc3c(c21)C=CC1(CCCCC1)O3	> 10	> 10	> 10	> 10	> 10	> 10	> 10		> 10	> 10
CN(C)CCC(=O)/C=C\c1ccccc1	32.7	25	33.9	39.3		30.7	> 100	35.1	35.7	> 100
CCOC(=O)C#Cc1ccccc1	33.4	12.4	10.9		31.3	80.1	> 100	4.76	19.3	
